The target in one data set is T1, rhCRTh2 (Homo sapiens, UniProt Q9Y5Y4).
T1 construct: expressed in transfected cells; host or cells: HEK cells (membrane preparation)
T1 sequence (Q9Y5Y4 1-395): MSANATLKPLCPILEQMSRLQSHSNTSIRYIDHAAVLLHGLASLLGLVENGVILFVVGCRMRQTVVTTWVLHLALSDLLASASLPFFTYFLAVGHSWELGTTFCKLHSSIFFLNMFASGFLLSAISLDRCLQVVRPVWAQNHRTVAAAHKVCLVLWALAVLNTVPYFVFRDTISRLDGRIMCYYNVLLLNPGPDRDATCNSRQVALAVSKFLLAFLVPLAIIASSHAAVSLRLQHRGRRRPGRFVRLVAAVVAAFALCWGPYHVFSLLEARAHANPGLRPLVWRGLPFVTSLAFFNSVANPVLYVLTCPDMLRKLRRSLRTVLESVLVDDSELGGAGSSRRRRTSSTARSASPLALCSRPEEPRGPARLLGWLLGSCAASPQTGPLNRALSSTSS
Put plainly: Ligand Binding Assay ([3H]PGD2 SPA, HEK cell membranes). The following applies: [3H]PGD2 displacement, HEK membranes expressing rhCRTh2/Gα16, SPA beads, 2 hours room temperature. As for the experimental part: • 1) Gassmann, Berge, T. J., Gilbert, D. P., Berkeley, W. C., JACS, 96, 5495-5508, (1974). Pharmacological Data Ligand Binding Assay
[^3H]PGD2 was purchased from Perkin Elmer Life Sciences with a specific activity of 100-210 Ci/mmol. All other chemicals were of analytical grade.
HEK cells expressing rhCRTh2/Gα16 were routinely maintained in DMEM containing 10% Foetal Bovine Serum (HyClone), 1 mg/ml geneticin, 2 mM L-glutamine and 1% non-essential amino acids. For the preparation of membranes, the adherent transfected HEK cells were grown to confluence in two layer tissue culture factories (Fisher, catalogue number TKT-170-070E). Maximal levels of receptor expression were induced by addition of […] sodium butyrate for the last 18 hours of culture. The adherent cells were washed once with phosphate buffered saline (PBS, 50 ml per cell factory) and detached by the addition of 50 ml per cell factory of ice-cold membrane homogenisation buffer [20 mM HEPES (pH 7.4), 0.1 mM dithiothreitol, 1 mM EDTA, 0.1 mM phenyl methyl sulphonyl fluoride and 100 μg/ml bacitracin]. […] The final pellet was re-suspended in 4 ml of membrane homogenisation buffer per cell factory used and the protein content determined. […]
All assays were performed in Corning clear bottomed, white 96-well NBS plates (Fisher). […] (The optimum coating concentrations were determined for each batch of membranes) The beads were pelleted by centrifugation (800×g for 7 minutes at 4° C.), washed once with assay buffer (50 mM HEPES pH 7.4 containing 5 mM magnesium chloride) and finally re-suspended in assay buffer at a bead concentration of 10 mg/ml.
Each assay contained 20 μl of 6.25 nM [^3H]PGD2, 20 μl membrane saturated SPA beads both in assay buffer and 10 μl of compound solution or 13,14-dihydro-15-keto prostaglandin D2 (DK-PGD2, for determination of non-specific binding, Cayman chemical company). […] The assay plate was incubated at room temperature for 2 hours and counted on a Wallac Microbeta liquid scintillation counter (1 minute per well).

What is called pIC50 is −log10 of the IC50, conventionally taken in molar units. The melting point is the temperature, or range, at which the solid turns liquid.

pIC50: −log10 of the molar value. Where a name gives a salt, the structure may show the parent alone.

`Cc1ccc2c(c1)c(-c1ccnc3ccccc13)c(C)n2CC(=O)O` [Example 14, 2,5-dimethyl-3-(4-quinolinyl)-1H-indole-1-acetic acid, sodium salt]: the pIC50 at rhCRTh2 is 7.70.
`Cc1c(-c2nsc3ccccc23)c2cc(F)ccc2n1CC(=O)O` [Example 36, 3-(1,2-benzisothiazol-3-yl)-5-fluoro-2-methyl-1H-indole-1-acetic acid]: the pIC50 at rhCRTh2 was 8.15.
On to `Cc1c(-c2ccnc3cc(Cl)ccc23)c2cc(NS(C)(=O)=O)ccc2n1CC(=O)O` [Example 46, 3-(7-Chloro-4-quinolinyl)-2-methyl-5-[(methylsulfonyl)amino]-1H-indole-1-acetic acid], for which the melting point lay within 195 to 198 °C.
For `O=C(O)Cn1c(CO)c(-c2ccnc3cc(Cl)ccc23)c2cc(Cl)ccc21` [Example 55, 5-Chloro-3-(7-chloro-4-quinolinyl)-2-(hydroxymethyl)-1H-indole-1-acetic acid], the pIC50 at rhCRTh2 is 7.27.

Values taken from patent publication US8093278B2, “Substituted indoles” (AstraZeneca AB, priority 2002, dated 2012).
